# Results published in patent US20240358818A1, “ANTIBODY-INDUCING POLYPEPTIDE AND VACCINE” (priority 2021, published 2024).
# What was measured:
# [1] = target: L452R mutant RBD epitope antigen (Severe acute respiratory syndrome coronavirus 2, UniProt P0DTC2, L452R)
# [2] = target: T478K mutant RBD epitope antigen (Severe acute respiratory syndrome coronavirus 2, UniProt P0DTC2, T478K)
sequence,measurement,setting,value
GGNYNYLYRLFRKSNLKPFERD [#10],reactivity to a homologous epitope of the mutant RBD compared with the wild-type RBD,[1],substantially equivalent
SNLKPFERDISTEIYQAGSTPC [#11],reactivity of mouse serum to the mutant RBD,[2],sufficiently high reactivity
same,reactivity to the mutant RBD compared with reactivity to the wild-type RBD,[2],a little lower
